For test [1], the system named is endothelial lumen of C3Asub28/TIME, MDA-MB-231/TIME, THLE-3/TIME microenvironments. The test can be described thus: Vessel permeability of multi tissue-on-a-chip microenvironments. Format: cell-based, human. Conditions: TNFα treated TIME monoculture vs TIME monoculture, this study.
Method: Transport measurements of varying particle sizes in the multi tissue-on-a-chip microenvironment were conducted for two different scenarios: single microenvironment analysis and microenvironments connected in series to investigate the influence of their interactions and interdependent transport kinetics. When considering only a single microenvironment transport, particles were delivered through the vessel of the microenvironment of interest and transport through the vessel and into the surrounding ECM was measured subsequently and spatially. In these tests, 5 different platform configurations was used: acellular with no cells in the ECM and no cells in the vessel, TIME monoculture consisting only endothelial cells lining the vessel without cells in the ECM, and then vascularized microenvironments denoted as cells in the ECM/cells in the vessel: MDA-MB-231/TIME, C3Asub28/TIME, and THLE-3/TIME microenvironments. […]
Therefore, endothelial porosity was determined using fluorescence microscopy images of mKate tagged endothelial cells. […] The effect of vessel and ECM porosities and particle size on transport were quantified using two methods, permeability coefficient and intensity profiles of the particles in the vessel and ECM. […] Obtained images were exported to Matlab to quantify intensity readings at each time step. For the first method, permeability coefficient was calculated using Equation 8
The test system of test [2] is TIME monoculture endothelium. The test can be described thus: Porosity of vasculature (vessel confluence, confocal). Format: cell-based, human. Conditions: 20 ng/ml perfused 24 hours.
Method: After embedding cells in collagen and successfully preconditioning endothelialized channels for 72 hours to establish a confluent, aligned endothelium, the effect of different co-culture conditions on the vessel confluence was studied as shown in FIG. 20.
To create a fully functional aligned endothelium along each channel within each compartment, TIME cell suspension in media (10×10^6 cells/ml) was introduced in the channel and underwent flow preconditioning for 3 days. Within the first 36 hours, wall shear stress was maintained at 0.01 dyn/cm^2 and followed with a linear increase of wall shear stress to 0.1 dyn/cm^2 for 1 hour and maintained at this value for the next 36 hours. […] For positive control samples, 20 ng/ml Tumor Necrosis Factor Alpha (TNFα, RnD Systems, MN) was perfused at 0.1 dyn/cm^2 for 24 hours after the preconditioning protocol before transport studies. To provide flow into the microfluidic platform, 0.5″ long 22G stainless steel needles were inserted though PDMS ports and partially into the collagen microchannels. Autoclaved Tygon silicon tubing ( 1/16″ ID, Saint Global, France) was connected to the inlet needle and a bubble trap, which is connected to a syringe pump that controls the flow rate. […]
Therefore, endothelial porosity was determined using fluorescence microscopy images of mKate tagged endothelial cells.
Test [3] concerns endothelial lumen of C3Asub28/TIME, MDA-MB-231/TIME, THLE-3/TIME microenvironments. Conditions: reported by Zervantonakis et al.; cited from earlier work.

Like-named read-outs stand apart in the source and are kept apart here.

Tumor Necrosis Factor Alpha [TNFα]: the “fold change of permeability between Control − and Control +” value was 1.59±0.13 in test [1] and 1.79±0.27 in test [3]. Also, the “effect on vessel compared to Control −” value in test [2] is on record as “caused vessel permeabilization with significant pore openings”.

The record behind these values is patent US20200115667A1, “VASCULARIZED MICROFLUIDIC PLATFORMS” (BOARD OF REGENTS, THE UNIVERSITY OF TEXAS SYSTEM, priority 2017, published 2020).
